Legend:
[1] = Photoisomerization of Azo lipidoids in DMSO (UV-Vis absorption); assay type: physicochemical; conditions: for UV irradiation time until spectral changes level off (photostationary state): UV 365 nm, 5.40 mW/cm^2; for additional Vis irradiation time that reverses the spectral change: Vis >400 nm, 20 mW/cm^2
Protocol: Azo lipidoid was prepared as 50 μM solution in anhydrous dimethyl sulfoxide (DMSO). The sample was irradiated with UV (365 nm for 6 s) and Vis light (>400 nm for 6 s), respectively. The power densities for 365 and >400 nm was 5.40 and 20 mW/cm^2, respectively.
SAzo lipidoid was prepared as 30 μM solution in anhydrous dimethyl sulfoxide (DMSO). TAzo lipidoid was prepared as 15 μM solution in DMSO. These samples were irradiated with UV (365 nm for 6 s) and Vis light (>400 nm for 6 s), respectively. The power densities for 365 and >400 nm are 5.40 and 20 mW/cm^2, respectively.

[2] = Critical micelle concentration in aqueous solution; assay type: physicochemical
[3] = test system: 4T1 tumor cells; assay: Cell cytotoxicity using CCK-8 assay; assay type: cell-based, mouse
Protocol: In vitro cytotoxicity was assessed by the standard CCK-8 assay. To test the cytotoxicity of DSPC-Azo@GOx with or without UV/Vis light irradiation, 4T1 tumor cells were seeded in the basolateral chamber of a 24-well transwell plate at a density of 10^5 cells per well and cultured in 5% CO2 at 37° C. for overnight (16 h). Then, DSPC-Azo@GOx was added to the upper chamber. Then, the samples were irradiated using the UV/Vis light (irradiated for 5 min every 8 hours). After three irradiation, the cell viability was measured using CCK-8 kit according to the manufacturer's instruction.

[4] = helper lipid; cited from earlier work

| UV irradiation time until spectral changes level off (photostationary state) [1] [s] | additional Vis irradiation time that reverses the spectral change [1] [s] | Molecule | Tm (phase transition temperature) [4] [°C] | headgroup surface area [4] | other results |
| --- | --- | --- | --- | --- | --- |
| 6 | 6 | CCCCCCCCCCCC(=O)Nc1ccc(/N=N/c2ccc(C[N+](C)(C)C)cc2)cc1 [Azo lipidoid] | – | – | critical micelle concentration (CMC) [2]: ≈ 30 μM; dose dependent cell viability ([3]; 4T1 cells, 24 h incubation): relatively good biocompatibility |
| – | – | CCCCCCCCCCCCCC(=O)OC[C@H](COP(=O)([O-])OCC[N+](C)(C)C)OC(=O)CCCCCCCCCCCCC [DMPC, dimyristoylphosphatidylcholine] | 24.1 | ~ 0.665 nm^2 | – |
| – | – | CCCCCCCCCCCCCCCC(=O)OC[C@H](COP(=O)([O-])OCC[N+](C)(C)C)OC(=O)CCCCCCCCCCCCCCC [DPPC, dipalmitoylphosphatidylcholine] | 41.3 | ~ 0.665 nm^2 | – |
| – | – | CCCCCCCCCCCCCCCCCC(=O)OC[C@H](COP(=O)([O-])OCC[N+](C)(C)C)OC(=O)CCCCCCCCCCCCCCCCC [DSPC, distearoylphosphatidylcholine] | 55 | ~ 0.430 nm^2 | – |
| 6 | 6 | CCCCCCCCCCCC(=O)Nc1ccc(/N=N/c2ccc(C[N+](C)(C)CC[N+](C)(C)Cc3ccc(/N=N/c4ccc(NC(=O)CCCCCCCCCCC)cc4)cc3)cc2)cc1 [TAzo lipidoid] | – | – | – |
| – | – | Glucose Oxidase [GOx] | – | – | cell viability with versus without UV/Vis light treatment ([3]; dialysis setup, 24 h): no significant differences in cell viabilities |
